{"source": "paper PMC4445002", "about": "“Efficient inhibition of tumor angiogenesis and growth by a synthetic peptide blocking S100A4-methionine aminopeptidase 2 interaction” (Molecular Therapy. Methods & Clinical Development, 2015)", "format_in_all_cases": "cell-based, mouse", "key": {"[1]": {"system": "vinculin and integrin β1 focal adhesions in MSS31 cells", "experiment": "Focal adhesion and F-actin immunofluorescence", "conditions": "5 μg/well, 18 hours", "protocol": "Figure 7 Stimulation of the formation of focal contacts by the NBD peptide. MSS31 cells incubated with atelocollagen alone or the peptide/atelocollagen complexes were subjected to immunofluorescent staining and western blot analysis. (a) Formation of focal adhesions. The cells were immunostained with antivinculin or anti-integrin β1 antibody followed by Alexa Fluor 488-conjugated secondary antibody. F-actin was visualized with Atto 647N-Phalloidin. Nuclei were stained with DAPI. Scale bars: 50 μm. (b) Western blot analysis of focal adhesion proteins. Total cellular proteins were subjected to immunoblot analysis. (c) Relative expression level of vinculin (VCN), integrin β1 (ITGβ1) and p-FAK. The band intensity of VCN and ITGβ1 and p-FAK relative to that of β-actin and total FAK, respectively, was measured using ImageJ software and normalized to control cells.\nMSS31 cells cultured in six-well plates were incubated with 5 μg/well of the NBD or the CBD peptide/atelocollagen complex or atelocollagen alone for 18 hours in Culture Slides (4 wells, BD Falcon) and were washed three times with DPBS and fixed for 10 minutes at 4 °C with 4% formaldehyde in DPBS. After permeabilizing with 0.5% Triton X-100 in DPBS for 4 minutes, the cells were treated with 3% bovine serum albumin in DPBS containing 0.1% glycine for 1 hour to block nonspecific binding sites. After washing with DPBS, the cells were incubated for 1 hour with primary antibodies, rinsed, and then stained with secondary antibodies. The primary antibodies used were polyclonal anti-S100A4, monoclonal anti-NMIIA antibody, monoclonal antivinculin antibody and polyclonal anti-integrin β1 antibody. The secondary antibody was Alexa Fluor 488-conjugated goat antirabbit IgG (Invitrogen) or Alexa Fluor 594-conjugated goat antimouse IgG (Invitrogen). F-Actin was visualized with Atto 647N-Phalloidin (Sigma-Aldrich). Nuclei were stained with 1 μg/ml DAPI. The slides were mounted with VECTASHIELD Mounting Medium (Vector Laboratories). The cells were observed under a confocal laser scanning microscope (Fluoview FV1000, Olympus, Japan)."}, "MSS31 cells [2]": {"system": "MSS31 cells", "experiment": "Cell cycle progression by BrdU flow cytometry", "conditions": "9 hours", "protocol": "Since the overexpression of the SBD in MSS31 cells caused DNA synthesis inhibition, we examined the effect of the NBD peptide on cell cycle progression by flow cytometry after treating the cells with various concentrations of the synthetic peptides (0–1.0 μg/well) complexed with atelocollagen for 9 hours.\n(§1) Figure 8 Inhibition of cell cycle progression and cell growth by the NBD peptide. MSS31 cells were treated with atelocollagen alone or the NBD or the CBD peptide/atelocollagen complex in vitro. (a) Cell cycle progression. The cells were labeled with BrdU and then subjected to flow cytometry. (b) Cell growth. The values represent cell growth rate relative to that of control cells that is set to 100%. The NBD peptide inhibited the growth of MSS31 cells compared to the control cells (atelocollagen alone). Data represent the mean ± SD (n = 4), P < 0.01. TEXT PRINTED IN THE PICTURE: (a) NBD: S:13.2%; G1:70.7%; G2/M:9.6% | (a) CBD: S:32.1%; G1:55.4%; G2/M:8.9% | (a) peptide(−): S:36.7%; G1:49.6%; G2/M:9.7%\nMSS31 cells treated with 1.0 μg/ml of the NBD peptide or the CBD peptide/atelocollagen were labeled with 10 μmol/l BrdU for 6 hours. Atelocollagen alone was used as a control. Flow cytometric analysis was carried out using the FITC BrdU Flow Kit (BD Biosciences Pharmigen, San Diego, CA) following the manufacturer’s instructions."}, "MSS31 cells [3]": {"system": "MSS31 cells", "experiment": "MSS31 cell growth", "conditions": "atelocollagen complex; relative to control cells set to 100%; n = 4, P < 0.01", "protocol": "as §1"}, "[4]": {"conditions": "0–1.0 μg/well with atelocollagen"}}, "data": [{"substance": "NBD: N-terminal 39 amino acid sequence of SBD, from Arg170 to Ileu208; corresponding to MetAP2 (170–208) (REAAEAHRQVRKYVMSWIKPGMTMIEICEKLEDCSRKLI)", "values": [{"measurement": "number of focal adhesions per cell", "setting": "[1]; atelocollagen complex, vinculin and integrin β1 staining", "value": "greater number of vinculin- and integrin β1-containing focal adhesions per cell than the untreated and the CBD peptide-treated cells"}, {"measurement": "distribution of focal adhesions", "setting": "[1]; immunofluorescence", "value": "focal adhesions were distributed uniformly"}, {"measurement": "formation of actin filaments", "setting": "[1]; phalloidin staining", "value": "Formation of actin filaments was also prominent"}, {"measurement": "effect on G2/M phase", "setting": "MSS31 cells [2]; [4]", "value": "not significantly affected"}, {"measurement": "effect on cell cycle progression", "setting": "MSS31 cells [2]; [4]", "value": "leads to cell cycle arrest in the G1/S phase"}, {"measurement": "cells in G2/M phase", "setting": "MSS31 cells [2]; atelocollagen complex, BrdU flow cytometry, representative study, without peptide 9.7%", "value": 9.6, "unit": "%"}, {"measurement": "cells in S phase", "setting": "MSS31 cells [2]; atelocollagen complex, BrdU flow cytometry, representative study, without peptide 36.7%", "value": 13.2, "unit": "%"}, {"measurement": "cells in G1 phase", "setting": "MSS31 cells [2]; atelocollagen complex, BrdU flow cytometry, representative study, without peptide 49.6%", "value": 70.7, "unit": "%"}, {"measurement": "growth of MSS31 cells", "setting": "MSS31 cells [3]", "value": "significantly inhibited the growth of MSS31 cells"}]}]}
